These results are taken from ChEMBL document CHEMBL4392879, “Secondary Metabolites of Onygenales Fungi Exemplified by Aioliomyces pyridodomos” (J Nat Prod, 2019).

The structures appear in SMILES notation. In brackets after ≈: the same amount, converted by molar mass.

This experiment concerns Histoplasma capsulatum. Description: Antifungal activity against Histoplasma capsulatum G217B after 10 to 14 days by microscopic method. Type of experiment: functional, organism-based.
As to `C/C=C/C=C/c1c(CC=C(C)C)cc(CC=C(C)C)c(O)c1CO`, the IC50 (usually the concentration that inhibits the measured activity by half) was determined as 8 µg/mL (≈ 24.5 µM).
As for `C/C=C/C=C/c1c(CC=C(C)C)cc2c(c1CO)OC(C)(C)C(O)C2=O` (stereo unspecified), the figure is 16 µg/mL (≈ 44.9 µM); as for `CC(C)=CCc1cc2c(c3c1[C@@H]1C[C@H](C3=O)[C@@H]1C)OC(C)(C)[C@H](O)C2=O`, 64 µg/mL (≈ 181 µM); as for `CC(C)=CCc1cc2c(c3c1[C@@H]1C[C@H](C3=O)[C@@H]1C)OC(C)(C)[C@@H](O)C2=O`, 32 µg/mL (≈ 90.3 µM).
As for `C[C@@H]1[C@H](O)[C@@H](C)/C=C/C=C/C=C/C=C/C=C/C=C/C=C/[C@H](O[C@@H]2O[C@H](C)[C@@H](O)[C@H](N)[C@@H]2O)C[C@@H]2O[C@](O)(C[C@@H](O)C[C@@H](O)[C@H](O)CC[C@@H](O)C[C@@H](O)CC(=O)O[C@H]1C)C[C@H](O)[C@H]2C(=O)O` [AMPHOTERICIN B], the figure is 0.5 µg/mL (≈ 0.541 µM); as for `CCC(C)n1ncn(-c2ccc(N3CCN(c4ccc(OCC5COC(Cn6cncn6)(c6ccc(Cl)cc6Cl)O5)cc4)CC3)cc2)c1=O` (stereo unspecified) [ITRACONAZOLE], 0.001 µg/mL (≈ 0.00142 µM).
